Patent US8778972B2, “5-pyridin-3-yl-1, 3-dihydro-indol-2-on derivatives and their use as modulators of aldosterone synthase and/or CYP11B1” (Novartis AG, priority 2009, dated 2014)

How the values were obtained:
aldosterone synthase = biological target: T1, aldosterone synthase (Homo sapiens, UniProt P19099); assay: Aldosterone cell secretion in NCI-H295R cells (Ang II stimulated, SPA); assay type: cell-based
T1 construct: host or cells: NCI-H295R
T1 sequence (P19099 25-503): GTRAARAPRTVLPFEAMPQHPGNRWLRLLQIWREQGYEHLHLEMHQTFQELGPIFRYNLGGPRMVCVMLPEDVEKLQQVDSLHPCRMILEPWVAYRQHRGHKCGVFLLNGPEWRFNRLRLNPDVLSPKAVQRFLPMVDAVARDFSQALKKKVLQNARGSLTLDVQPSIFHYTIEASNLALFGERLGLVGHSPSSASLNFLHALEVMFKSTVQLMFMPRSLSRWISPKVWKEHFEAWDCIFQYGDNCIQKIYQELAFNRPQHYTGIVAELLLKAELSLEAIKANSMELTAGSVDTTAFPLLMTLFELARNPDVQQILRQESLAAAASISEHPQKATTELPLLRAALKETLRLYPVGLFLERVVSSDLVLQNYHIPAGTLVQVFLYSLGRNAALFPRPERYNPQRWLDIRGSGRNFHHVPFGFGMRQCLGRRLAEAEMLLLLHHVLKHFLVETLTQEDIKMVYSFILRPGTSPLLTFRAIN
Description: In particular, the aldosterone synthase inhibitory activities in vitro can be determined by the following assay.
Human adrenocortical carcinoma NCI-H295R cell line was obtained from American Type Culture Collection (Manassas, Va.). Insulin/transferrin/selenium (ITS)-A supplement (100×), DMEM/F-12, antibiotic/antimycotic (100×), and fetal bovine serum (FBS) were purchased from Invitrogen (Carlsbad, Calif.). Anti-mouse PVT scintillation proximity assay (SPA) beads and NBS 96-well plates were obtained from GE Health Sciences (Piscataway, N.J.) and Corning (Acton, Mass.), respectively. Solid black 96-well flat bottom plates were purchased from Costar (Corning, N.Y.). Aldosterone and angiotensin (Ang II) were purchased from Sigma (St. Louis, Mo.). D[1,2,6,7-^3H(N)]aldosterone was acquired from PerkinElmer (Boston, Mass.). Nu-serum was a product of BD Biosciences (Franklin Lakes, N.J.).
For in vitro measurement of aldosterone activity, human adrenocortical carcinoma NCI-H295R cells are seeded in NBS 96-well plates at a density of 25,000 cells/well in 100 μl of a growth medium containing DMEM/F12 supplemented with 10% FCS, 2.5% Nu-serum, 1 μg ITS/ml, and 1× antibiotic/antimycotic. The medium is changed after culturing for 3 days at 37° C. under an atmosphere of 5% CO2/95% air. On the following day, cells are rinsed with 100 μl of phosphate-buffered saline (PBS) and incubated with 100 μl of treatment medium containing 1 μM Ang II and a compound at different concentrations in quadruplicate wells at 37° C. for 24 hr. At the end of incubation, 50 μl of medium is withdrawn from each well for measurement of aldosterone production by an SPA using mouse anti-aldosterone monoclonal antibodies.
Measurement of aldosterone activity can also be performed using a 96-well plate format. Each test sample is incubated with 0.02 μCi of D-[1,2,6,7-^3H(N)]aldosterone and 0.3 μg of anti-aldosterone antibody in PBS containing 0.1% Triton X-100, 0.1% bovine serum albumin, and 12% glycerol in a total volume of 200 μl at room temperature for 1 hr. Anti-mouse PVT SPA beads (50 μl) are then added to each well and incubated overnight at room temperature prior to counting in a Microbeta plate counter. The amount of aldosterone in each sample is calculated by comparing with a standard curve generated using known quantities of the hormone.
(§1) Inhibition of the release of certain steroids can be used as a measure of the respective enzyme inhibition by the added test compounds. The dose-dependent inhibition of enzymic activity by a compound is calculated by means of an inhibition plot which is characterized by an IC50.
The IC50 values for active test compounds are ascertained by a simple linear regression analysis in order to construct inhibition plots without data weighting. The inhibition plot is calculated by fitting a 4-parameter logistic function to the raw data points using the least squares method. The equation of the 4-parameter logistic function is calculated as follows: Y=(d−a)/((1+(x/c)b))+a, where: a=minimum data level, b gradient, I c=ICED, d=maximum data level, x=inhibitor concentration.
The inhibition activity of aldosterone production can also be expressed in percentage inhibition (% inhibition) at a given concentration (e.g. % inhibition at 1 μM), which is the aldosterone level when the cell is treated with the given concentration of a compound of this invention (e.g. concentration of 1 μM) versus the aldosterone excretion when cell is free of the compound of the invention: % inhibition aldosterone production=[(Y′−X′)/Y′]×100 wherein X′ is the level of aldosterone when the cell is treated with a compound of Formula I and Y′ is the level of aldosterone when the cell is free of compound of Formula I.

CYP11B1 = biological target: T2, CYP11B1 (Homo sapiens, UniProt P15538); assay: Cortisol cell secretion in NCI-H295R cells (CYP11B1 activity); assay type: cell-based; conditions: for inhibition at 1 µM: read-out: Cortisol cell secretion (% Inhib. @ 1 μM)
T2 construct: the NCI-H295R cells have Cyp11 B1 (steroid 11 β-hydroxylase); host or cells: NCI-H295R
T2 sequence (P15538 25-503): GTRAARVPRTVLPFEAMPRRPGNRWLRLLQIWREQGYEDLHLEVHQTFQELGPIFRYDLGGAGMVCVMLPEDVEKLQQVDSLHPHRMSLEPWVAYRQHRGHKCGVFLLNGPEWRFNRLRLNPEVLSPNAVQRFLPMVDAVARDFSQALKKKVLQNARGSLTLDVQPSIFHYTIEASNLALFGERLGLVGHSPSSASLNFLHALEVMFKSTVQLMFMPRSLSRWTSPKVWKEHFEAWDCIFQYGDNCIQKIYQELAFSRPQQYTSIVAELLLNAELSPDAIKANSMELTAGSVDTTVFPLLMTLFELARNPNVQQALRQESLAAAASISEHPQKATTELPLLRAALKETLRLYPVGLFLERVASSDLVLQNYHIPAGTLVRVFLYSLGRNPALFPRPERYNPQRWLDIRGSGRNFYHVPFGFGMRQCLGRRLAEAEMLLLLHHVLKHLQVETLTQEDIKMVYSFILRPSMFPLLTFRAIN
Description: The in vitro inhibitory activities for CYP11B1 can be determined by the following assay.
The cell line NCI-11295R was originally isolated from an adrenocortical carcinoma and has been characterized in the literature through the stimulable secretion of steroid hormones and the presence of the enzymes essential for steroidogenesis. Thus, the NCI-H295R cells have Cyp11 B1 (steroid 11 β-hydroxylase). The cells show the physiological property of zonally undifferentiated human foetal adrenocortical cells which, however, have the capacity to produce the steroid hormones which are formed in the three, phenotypically distinguishable zones in the adult adrenal cortex.
The NCI-H295R cells (American Type Culture Collection, ATCC, Rockville, Md., USA) are grown in Dulbeoco's Modified Eagle' Ham F-12 Medium (DME/F12), which has been supplemented with Ulroser SF Serum (Soprachem, Cergy-Saint-Christophe, France), insulin, transferrin, selenite (I-T-S, Becton Dickinson Biosciences, Franklin lakes, N.J., USA) and antibiotics in 75 cm^2 cell culture vessels at 37° C. and in a 95% air-5% carbon dioxide atmosphere. The cells are subsequently transferred for colony formation into a 24-well incubation vessel. They are cultivated there in DME/F12 medium, which is now supplemented with 0.1% bovine serum instead of Ultroser SF for 24 hours. The experiment is initiated by cultivating the cells in DME/F12 medium which is supplemented with 0.1% bovine serum albumin and test compound, in the presence or absence of cell stimulants, for 72 hours. The test substance is added in a concentration range from 0.2 nanomolar to 20 millimolar. Cell stimulants which can be used are angiotensin II ([…] or 100 nanomolar), potassium ions (16 millimolar), forskolin (10 micromolar) or a combination of two stimulants.
The excretion of aldosterone, cortisol, corticosterone and estradiol/estrone into the culture medium can be detected and quantified by commercially available, specific monoclonal antibodies in radioimmunoassays in accordance with the manufacturer's instructions.
as §1
The inhibition activity of cortisol production (CYP11B1 activity) can also be expressed in percentage inhibition (% inhibition) at a given concentration (e.g. % inhibition at 1 μM), which is the cortisol level when cell is treated with the given concentration of a compound of the invention (e.g. concentration of 1 versus the cortisol excretion when cell is free of the compound of the invention: % inhibition cortisol production=[(Y′−X′)/Y′]×100 wherein X′ is the level of cortisol when the cell is treated with a compound of Formula I; and Y′ is the level of cortisol when the cell is free of compound of Formula

IC50 (aldosterone synthase) [nM]	Cortisol cell secretion (% Inhib. @ 1 μM) (CYP11B1) [%]	inhibition at 1 µM (CYP11B1) [%]	Compound
18	51		5-(5-Ethoxy-pyridin-3-yl)-1-methyl-1,3-dihydro-indol-2-one [#13]
14	87		5-[5-(1-Hydroxy-1-methyl-ethyl)-pyridin-3-yl]-1-methyl-1,3-dihydro-indol-2-one [Example 16]
5	83		CN1C(=O)Cc2cc(-c3cncc(F)c3)ccc21 [Example 2, 5-(5-Fluoro-pyridin-3-yl)-1-methyl-1,3-dihydro-indol-2-one]
10		85.5	CN1C(=O)Cc2c1ccc(-c1cccnc1)c2Cl [Example 4]
58	78		CN1C(=O)Cc2cc(-c3cncc(C(N)=O)c3)ccc21 [Example 5, 5-(1-Methyl-2-oxo-2,3-dihydro-1H-indol-5-yl)-nicotinamide]
36		84	COc1c(-c2cccnc2)ccc2c1CC(=O)N2C [Example 8]
15	89		CC(C)C(=O)Nc1cncc(-c2ccc3c(c2)CC(=O)N3C)c1 [Example 9, N-[5-(1-Methyl-2-oxo-2,3-dihydro-1H-indol-5-yl)-pyridin-3-yl]-isobutyramide]
4		93	Cc1c(-c2cncc(Br)c2)ccc2c1CC(=O)N2C [Example 10]
2		79	CN1C(=O)Cc2cc(-c3cncc(C4CC4)c3)ccc21 [Example 12]
20		83.5	CCOc1cncc(-c2ccc3c(c2)CC(=O)N3C)c1 [Example 13]
18		60	CN1C(=O)Cc2cc(-c3cncc(-c4cccnc4)c3)ccc21 [Example 14]
408			Cn1c(=O)n(C)c2cc(-c3cccnc3)ccc21 [Example 18]
472			Cn1c(=O)oc2cc(-c3cccnc3)ccc21 [Example 19]

Compound	IC50 (aldosterone synthase) [nM]	Cortisol cell secretion (% Inhib. @ 1 μM) (CYP11B1) [%]	inhibition at 1 µM (CYP11B1) [%]
1-Isopropyl-3-[5-(1-methyl-2-oxo-2,3-dihydro-1H-indol-5-yl)-pyridin-3-ylmethyl]-urea [Example 15]	172	82	
1-Methyl-5-(5-methyl-pyridin-3-yl)-1,3-dihydro-indol-2-one [Example 1]	91.5	29.5	
5-(4-Ethyl-pyridin-3-yl)-1-methyl-1,3-dihydro-indol-2-one [Example 6]	11	83	
